Experimental data taken from patent US10028992B2, “Methods of treating muscular dystrophy” (BOARD OF REGENTS OF THE NEVADA SYSTEM OF HIGHER EDUCATION …, priority 2012, dated 2018).
Where two headings read alike, the source gives them in different places.

System: α7 integrin promoter
Experiment: muscle cell-based assay: α7βgal+/− myoblasts/myotubes, LacZ reporter, β-galactosidase cleavage of FDG
Set-up: species or system mouse
Details: for AC50 / EC50: Mus musculus; for AC50 / Fit Log AC50: log of AC50, given with negative sign, unit of AC50 not given; for AC50: read-out: Fit Log AC50 (converted); for Fit Infinite Activity [%]: fitted activity at infinite concentration; for EC50: read-out: Fit LogAC50 (converted)
Description: An α7 integrin null mouse was produced in which exon 1 of the gene encoding the α7 integrin was replaced by the LacZ reporter. In these mice, all the transcriptional regulatory elements of the α7 integrin promoter were retained, allowing β-galactosidase to report expression of 7 integrin. A primary myoblast cell line (designated α7βgal^+/−) isolated from 10 day old α7^+/− pups were analyzed for the ability of β-galactosidase to report α7 integrin expression. α7βgal^+/− myoblasts were differentiated and subjected to X-gal staining and western analysis (FIGS. 1A and 1B).
The activity of the α7 integrin promoter was measured by β-galactosidase cleavage of the non-fluorescent compound fluorescein di-β-D-galactopyranoside (FDG) to fluorescein. This assay was used to screen compound libraries to identify molecules that up-regulate α7 integrin expression in muscle.
Also evaluated was the effect of various isoforms of laminin and the ligand for α7β1 integrin on integrin expression. Positive hits were subjected to dose-response analysis, western analysis and a myostatin counterscreen (a negative regulator of muscle growth).

[1] = Table 12, fitted activity at zero concentration
[2] = Table 12 Compound data, concentration-response curve fit
[3] = given as log AC50 (negative values)
[4] = curve class number, key not given
[5] = curve fit, activity at zero concentration

EC50 [3] [µM] | Compound | AC50 (Table 12) [µM] | Fit HillSlope (Table 12, curve fit) | Fit Zero Activity [%] [1] [%] | Fit Curve Class (Table 12, key not given) | Score [2] | Score (Table 12 compound data) | Fit Curve Class [4] | Fit HillSlope (curve fit) | Fit Zero Activity [%] [5] [%] | further results
 | COc1ccc(N(CC(=O)NCCC(C)C)C(=O)c2snc(C(=O)NC3CCCCC3)c2N)c(OC)c1 [Compound 98] | 10 | 4.5045 | −0.0479 | 2.1 | 43 |  |  |  |  | 
 | CC1(C)CC(O)=C/C(=N\c2ccc(C(=O)O)c(O)c2)C1 [Compound 99] | 10 | 2.1211 | 0 | 2.1 | 43 |  |  |  |  | 
 | COC(=O)c1ccccc1NC(=O)c1cc[n+]([O-])cc1 [Compound 100] | 3.98 | 1.01 | −31.5116 | 2.1 | 43 |  |  |  |  | 
 | CN(C)C1(C/N=C/c2cc(Cl)cc([N+](=O)[O-])c2O)CCCCC1 [Compound 101] |  | 1.6604 | −15.8708 | 2.1 | 43 |  |  |  |  | Fit Infinite Activity [%] (Table 12): 115.659%; Fit Log AC50 (Table 12): −5.05
 | CS(=O)(=O)Cc1cccc(C(=O)NN(c2ccccc2)c2ccccc2)c1 [Compound 102] | 12.6 | 4.5045 | 10.4042 | 2.1 | 43 |  |  |  |  | 
 | COc1ccccc1CNS(=O)(=O)c1ccc(Cl)s1 [Compound 103] | 6.31 | 1.8265 | −23.0045 | 2.1 | 43 |  |  |  |  | 
 | O=C(NCCc1ccccc1)C1CCC(=O)N1C1CCCC1 (stereo not drawn) [Compound 104] | 10 | 3.6772 | −9.1182 | 2.1 | 43 |  |  |  |  | 
 | NS(=O)(=O)c1ccc(NC(=O)c2cc(-c3ccccc3O)[nH]n2)cc1 [Compound 105] | 10 | 3.5117 | 16.8467 | 2.1 | 43 |  |  |  |  | 
 | Fc1ccc(-c2ccnn2-c2ccccc2)cc1 [Compound 107] | 4.47 | 1.4781 | −19.2206 | 2.1 | 43 |  |  |  |  | 
 | O=C(Nc1cc(Br)ccc1O)C1CC(c2ccccc2Cl)=NO1 (stereo not drawn) [Compound 108] | 12.6 | 4.5045 | 2.0834 | 2.1 | 43 |  |  |  |  | 
 | COc1ccc2oc(C[S+]([O-])c3ccccc3)c(C(=O)O)c2c1 (stereo not drawn) [Compound 109] | 12.6 | 4.9549 | 7.5839 | 2.1 | 43 |  |  |  |  | 
 | CCCCS(=O)(=O)N1CCCC(C(=O)NCCc2ccccc2)C1 (stereo not drawn) [Compound 111] | 7.08 | 1.21 | 2.2101 | 2.1 | 43 |  |  |  |  | 
 | O=[N+]([O-])c1ccc(Cl)cc1N/N=C/c1ccncc1 [Compound 112] |  | 3.132 | 0.1229 | 2.2 | 43 |  |  |  |  | Fit Infinite Activity [%] (Table 12): 74.0416%; Fit Log AC50 (Table 12): −5.25
 | NC(=O)c1cccnc1Oc1ccc(Cl)cc1Cl [Compound 113] | 10 | 3.9295 | −5.8907 | 2.1 | 43 |  |  |  |  | 
 | Cc1ccc(NC(=O)C2CCCCC2C(=O)O)cc1C (stereo not drawn) [Compound 114] | 11.2 | 4.5045 | −3.8223 | 2.1 | 43 |  |  |  |  | 
 | CCOc1ccc2oc(C(=O)OCC(=O)NC(=O)NC)c(C)c2c1 [Compound 115] | 7.08 | 1.8265 | −4.8829 | 2.2 | 43 |  |  |  |  | 
 | CN(C)S(=O)(=O)c1ccc(C(=O)Nc2nc3ccccc3[nH]2)cc1 [Compound 116] | 8.91 | 1.5579 | −9.8246 | 2.1 | 43 |  |  |  |  | 
 | NC1=Nc2cccc3cccc1c23 [Compound 117] | 7.94 | 1.6604 | −0.2202 | 2.1 | 43 |  |  |  |  | 
 | C/N=c1\scc(-c2ccc(OC)cc2)n1/N=C(\C)c1cccnc1 [Compound 118] | 5.01 | 1.6924 | −7.9176 | 2.2 | 43 |  |  |  |  | 

EC50 [3] [µM] | Compound | AC50 (Table 12) [µM] | Fit HillSlope (Table 12, curve fit) | Fit Zero Activity [%] [1] [%] | Fit Curve Class (Table 12, key not given) | Score [2] | Score (Table 12 compound data) | Fit Curve Class [4] | Fit HillSlope (curve fit) | Fit Zero Activity [%] [5] [%] | further results
 | O=C(COC(=O)Cn1cnc2ccccc21)Nc1cccc([N+](=O)[O-])c1 [Compound 119] | 11.2 | 4.9549 | −16.0213 | 2.1 | 43 |  |  |  |  | 
 | Cc1ccc(CNc2ncnc(N)c2[N+](=O)[O-])cc1 [Compound 120] | 10 | 0.8 | 11.933 | 2.1 | 43 |  |  |  |  | 
 | CN(C)/C=N/c1nccc(-c2cccs2)n1 [Compound 121] | 8.91 | 1.8851 | 5.7133 | 2.1 | 43 |  |  |  |  | 
 | Cc1cc(N2CCOCC2)nc2ccc(N/C(S)=N/Cc3ccc4c(c3)OCO4)cc12 [Compound 122] | 10 | 1.2475 | 0.5248 | 2.1 | 43 |  |  |  |  | 
8.91 | COCCN1C=C(C(=O)OC)C(c2ccccc2Cl)C(C(=O)OC)=C1 [Compound 123] |  |  |  |  |  | 43 | 2.1 | 1.3443 | 3.9836 | 
8.91 | O=C(NCCCn1ccnc1)/C(=C/c1cccs1)NC(=O)c1ccco1 [Compound 124] |  |  |  |  |  | 43 | 2.1 | 1.2475 | −20.4393 | 
11.2 | N=C(NOC(=O)COc1cc(Cl)c(Cl)cc1Cl)c1ccncc1 [Compound 125] |  |  |  |  |  | 43 | 2.1 | 1.1705 | −2.6906 | 
8.91 | Cc1ccc(-c2csc(Nc3ccc(C(=O)O)cc3)[n+]2Cc2ccccc2)cc1.[Br-] [Compound 126] |  |  |  |  |  | 43 | 2.1 | 1 | 0.673 | 
12.6 | Cc1cc(-c2ccccc2)n2nc(N)nc2n1 [Compound 127] |  |  |  |  |  | 43 | 2.1 | 4.5045 | −18.9102 | 
14.1 | O=C(N/N=C/c1cn[nH]c1-c1ccc(F)cc1)c1ccncc1 [Compound 128] |  |  |  |  |  | 43 | 2.1 | 4.5045 | 14.6735 | 
11.2 | CC(/C=C(\O)c1ccccc1)=N\c1ccc(Br)c(Cl)c1 [Compound 130] |  |  |  |  |  | 43 | 2.1 | 4.5045 | 7.8122 | 
14.1 | Cc1ccc(NC(=O)COc2ccccc2CNC(C)(C)CC(C)(C)C)cc1 [Compound 131] |  |  |  |  |  | 43 | 2.1 | 4.9549 | 8.7591 | 
 | Cc1nc2c([nH]1)OC(N)=C(C#N)C21CCN(Cc2ccccc2)CC1 [Compound 132] |  |  |  |  |  |  |  |  |  | Fit Curve Class: 2.1; Fit HillSlope: 4.9549; Fit Zero Activity [%]: 12.8108%; Score: 43; EC50: 12.6 µM
10 | O=C(CSc1nnc(C2CC2)n1C1CC1)c1cccs1 [Compound 133] |  |  |  |  |  | 42 | 2.1 | 2.7202 | −27.5656 | 
10 | CSc1ncccc1C(=O)OCC(=O)c1cc(C)n(C)c1C [Compound 134] |  |  |  |  |  | 42 | 2.1 | 4.4495 | −22.5632 | 
10 | CCc1c(C2(O)CCCCC2)[nH]c2ncccc12 [Compound 135] |  |  |  |  |  | 42 | 2.1 | 4.9549 | −29.3022 | 
10 | O=C(Nc1ccc(S(=O)(=O)Nc2nccs2)cc1)c1ccccc1OC(F)F [Compound 137] |  |  |  |  |  | 42 | 2.1 | 4.9549 | −19.2861 | 
11.2 | O=C1CCc2cc(S(=O)(=O)Nc3ccc(C(F)(F)F)cc3)cc3c2N1CC3 [Compound 138] |  |  |  |  |  | 42 | 2.1 | 1.3437 | −27.3652 | 
11.2 | COc1ccccc1C(=O)NCC(=O)/N=N/c1c(O)n(C(C)C)c2ccccc12 [Compound 139] |  |  |  |  |  | 42 | 2.1 | 4.5045 | 14.712 | 
